{"source": "ChEMBL document CHEMBL4004849", "about": "“Tetrazolylmethyl quinolines: Design, docking studies, synthesis, anticancer and antifungal analyses” (2017)", "type_in_all_cases": "functional", "key": {"NCI-H226": {"system": "NCI-H226", "assay": "Growth inhibition of human NCI-H226 cells at 10^-5 M incubated for 48 hrs by sulforhodamine B assay relative to control"}, "SF-295": {"system": "SF-295", "assay": "Growth inhibition of human SF295 cells at 10^-5 M incubated for 48 hrs by sulforhodamine B assay relative to control"}, "UACC-62": {"system": "UACC-62", "assay": "Growth inhibition of human UACC62 cells at 10^-5 M incubated for 48 hrs by sulforhodamine B assay relative to control"}, "LOX IMVI": {"system": "LOX IMVI", "assay": "Growth inhibition of human LOXIMVI cells at 10^-5 M incubated for 48 hrs by sulforhodamine B assay relative to control"}, "Aspergillus fumigatus [1]": {"system": "Aspergillus fumigatus", "assay": "Antifungal activity against Aspergillus fumigatus after 24 hrs by serial dilution method"}, "SR": {"system": "SR", "assay": "Growth inhibition of human SR cells at 10^-5 M incubated for 48 hrs by sulforhodamine B assay relative to control"}, "HCT-15": {"system": "HCT-15", "assay": "Growth inhibition of human HCT15 cells at 10^-5 M incubated for 48 hrs by sulforhodamine B assay relative to control"}, "OVCAR-4": {"system": "OVCAR-4", "assay": "Growth inhibition of human OVCAR4 cells at 10^-5 M incubated for 48 hrs by sulforhodamine B assay relative to control"}, "SK-MEL-2": {"system": "SK-MEL-2", "assay": "Growth inhibition of human SK-MEL-2 cells at 10^-5 M incubated for 48 hrs by sulforhodamine B assay relative to control"}, "UACC-257": {"system": "UACC-257", "assay": "Growth inhibition of human UACC257 cells at 10^-5 M incubated for 48 hrs by sulforhodamine B assay relative to control"}, "MCF7": {"system": "MCF7", "assay": "Growth inhibition of human MCF7 cells at 10^-5 M incubated for 48 hrs by sulforhodamine B assay relative to control"}, "NCI-H460": {"system": "NCI-H460", "assay": "Growth inhibition of human NCI-H460 cells at 10^-5 M incubated for 48 hrs by sulforhodamine B assay relative to control"}, "Candida albicans [2]": {"system": "Candida albicans", "assay": "Antifungal activity against Candida albicans after 24 hrs by serial dilution method"}, "OVCAR-3": {"system": "OVCAR-3", "assay": "Growth inhibition of human OVCAR3 cells at 10^-5 M incubated for 48 hrs by sulforhodamine B assay relative to control"}, "M14": {"system": "M14", "assay": "Growth inhibition of human M14 cells at 10^-5 M incubated for 48 hrs by sulforhodamine B assay relative to control"}, "KM12": {"system": "KM12", "assay": "Growth inhibition of human KM12 cells at 10^-5 M incubated for 48 hrs by sulforhodamine B assay relative to control"}, "HL-60(TB)": {"system": "HL-60(TB)", "assay": "Growth inhibition of human HL-60(TB) cells at 10^-5 M incubated for 48 hrs by sulforhodamine B assay relative to control"}, "OVCAR-8": {"system": "OVCAR-8", "assay": "Growth inhibition of human OVCAR8 cells at 10^-5 M incubated for 48 hrs by sulforhodamine B assay relative to control"}, "HCC 2998": {"system": "HCC 2998", "assay": "Growth inhibition of human HCC2998 cells at 10^-5 M incubated for 48 hrs by sulforhodamine B assay relative to control"}, "786-0": {"system": "786-0", "assay": "Growth inhibition of human 786-0 cells at 10^-5 M incubated for 48 hrs by sulforhodamine B assay relative to control"}, "ACHN": {"system": "ACHN", "assay": "Growth inhibition of human ACHN cells at 10^-5 M incubated for 48 hrs by sulforhodamine B assay relative to control"}, "UO-31": {"system": "UO-31", "assay": "Growth inhibition of human UO31 cells at 10^-5 M incubated for 48 hrs by sulforhodamine B assay relative to control"}, "Candida albicans [3]": {"system": "Candida albicans", "assay": "Antifungal activity against Candida albicans at 100 ug/ml by disc diffusion method", "conditions": "read-out: IZ"}, "BT-549": {"system": "BT-549", "assay": "Growth inhibition of human BT549 cells at 10^-5 M incubated for 48 hrs by sulforhodamine B assay relative to control"}, "MOLT-4": {"system": "MOLT-4", "assay": "Growth inhibition of human MOLT4 cells at 10^-5 M incubated for 48 hrs by sulforhodamine B assay relative to control"}, "SK-OV-3": {"system": "SK-OV-3", "assay": "Growth inhibition of human SKOV3 cells at 10^-5 M incubated for 48 hrs by sulforhodamine B assay relative to control"}, "OVCAR-5": {"system": "OVCAR-5", "assay": "Growth inhibition of human OVCAR5 cells at 10^-5 M incubated for 48 hrs by sulforhodamine B assay relative to control"}, "RXF 393": {"system": "RXF 393", "assay": "Growth inhibition of human RXF393 cells at 10^-5 M incubated for 48 hrs by sulforhodamine B assay relative to control"}, "EKVX": {"system": "EKVX", "assay": "Growth inhibition of human EKVX cells at 10^-5 M incubated for 48 hrs by sulforhodamine B assay relative to control"}, "MDA-MB-231": {"system": "MDA-MB-231", "assay": "Growth inhibition of human MDA-MB-231/ATCC cells at 10^-5 M incubated for 48 hrs by sulforhodamine B assay relative to control"}, "NCI-H522": {"system": "NCI-H522", "assay": "Growth inhibition of human NCI-H522 cells at 10^-5 M incubated for 48 hrs by sulforhodamine B assay relative to control"}, "NCI-H23": {"system": "NCI-H23", "assay": "Growth inhibition of human NCI-H23 cells at 10^-5 M incubated for 48 hrs by sulforhodamine B assay relative to control"}, "A549": {"system": "A549", "assay": "Growth inhibition of human A549/ATCC cells at 10^-5 M incubated for 48 hrs by sulforhodamine B assay relative to control"}, "MDA-MB-468": {"system": "MDA-MB-468", "assay": "Growth inhibition of human MDA-MB-468 cells at 10^-5 M incubated for 48 hrs by sulforhodamine B assay relative to control"}, "Aspergillus fumigatus [4]": {"system": "Aspergillus fumigatus", "assay": "Antifungal activity against Aspergillus fumigatus at 100 ug/ml by disc diffusion method", "conditions": "read-out: IZ"}, "SK-MEL-5": {"system": "SK-MEL-5", "assay": "Growth inhibition of human SK-MEL-5 cells at 10^-5 M incubated for 48 hrs by sulforhodamine B assay relative to control"}, "SNB-19": {"system": "SNB-19", "assay": "Growth inhibition of human SNB19 cells at 10^-5 M incubated for 48 hrs by sulforhodamine B assay relative to control"}, "K562": {"system": "K562", "assay": "Growth inhibition of human K562 cells at 10^-5 M incubated for 48 hrs by sulforhodamine B assay relative to control"}, "MDA-MB-435": {"system": "MDA-MB-435", "assay": "Growth inhibition of human MDA-MB-435 cells at 10^-5 M incubated for 48 hrs by sulforhodamine B assay relative to control"}, "SN12C": {"system": "SN12C", "assay": "Growth inhibition of human SN12C cells at 10^-5 M incubated for 48 hrs by sulforhodamine B assay relative to control"}, "IGROV-1": {"system": "IGROV-1", "assay": "Growth inhibition of human IGROV1 cells at 10^-5 M incubated for 48 hrs by sulforhodamine B assay relative to control"}, "HCT-116": {"system": "HCT-116", "assay": "Growth inhibition of human HCT116 cells at 10^-5 M incubated for 48 hrs by sulforhodamine B assay relative to control"}, "Malme-3M": {"system": "Malme-3M", "assay": "Growth inhibition of human MALME-3M cells at 10^-5 M incubated for 48 hrs by sulforhodamine B assay relative to control"}, "U-251": {"system": "U-251", "assay": "Growth inhibition of human U251 cells at 10^-5 M incubated for 48 hrs by sulforhodamine B assay relative to control"}, "SK-MEL-28": {"system": "SK-MEL-28", "assay": "Growth inhibition of human SK-MEL-28 cells at 10^-5 M incubated for 48 hrs by sulforhodamine B assay relative to control"}}, "note": "The source made the active and inactive calls. The calls are words filed in the database; no cut-off is given here.", "data": [{"molecule": "Clc1nc2ccccc2cc1Cn1nnnc1Cc1ccccc1", "values": [{"measurement": "growth inhibition (GI)", "setting": "NCI-H226", "value": "Active"}, {"measurement": "growth inhibition (GI)", "setting": "SF-295", "value": "Active"}, {"measurement": "growth inhibition (GI)", "setting": "UACC-62", "value": "Active"}, {"measurement": "growth inhibition (GI)", "setting": "LOX IMVI", "value": "Active"}, {"measurement": "MIC", "setting": "Aspergillus fumigatus [1]", "value": 50, "unit": "µg/mL"}, {"measurement": "growth inhibition (GI)", "setting": "SR", "value": "Active"}, {"measurement": "growth inhibition (GI)", "setting": "HCT-15", "value": "Active"}, {"measurement": "growth inhibition (GI)", "setting": "OVCAR-4", "value": "Active"}, {"measurement": "growth inhibition (GI)", "setting": "SK-MEL-2", "value": "Active"}, {"measurement": "growth inhibition (GI)", "setting": "UACC-257", "value": "Active"}, {"measurement": "growth inhibition (GI)", "setting": "MCF7", "value": "Active"}, {"measurement": "growth inhibition (GI)", "setting": "NCI-H460", "value": "Active"}, {"measurement": "MIC", "setting": "Candida albicans [2]", "value": 25, "unit": "µg/mL"}, {"measurement": "growth inhibition (GI)", "setting": "OVCAR-3", "value": "Active"}, {"measurement": "growth inhibition (GI)", "setting": "M14", "value": "Active"}, {"measurement": "growth inhibition (GI)", "setting": "KM12", "value": "Active"}, {"measurement": "growth inhibition (GI)", "setting": "HL-60(TB)", "value": "Active"}, {"measurement": "growth inhibition (GI)", "setting": "OVCAR-8", "value": "Active"}, {"measurement": "growth inhibition (GI)", "setting": "HCC 2998", "value": "Active"}, {"measurement": "growth inhibition (GI)", "setting": "786-0", "value": "Active"}, {"measurement": "growth inhibition (GI)", "setting": "ACHN", "value": "Active"}, {"measurement": "growth inhibition (GI)", "setting": "UO-31", "value": "Active"}, {"measurement": "zone of inhibition at 100 µg/mL", "setting": "Candida albicans [3]", "value": 10, "unit": "mm"}, {"measurement": "growth inhibition (GI)", "setting": "BT-549", "value": "Active"}, {"measurement": "growth inhibition (GI)", "setting": "MOLT-4", "value": "Active"}, {"measurement": "growth inhibition (GI)", "setting": "SK-OV-3", "value": "Active"}, {"measurement": "growth inhibition (GI)", "setting": "OVCAR-5", "value": "Active"}, {"measurement": "growth inhibition (GI)", "setting": "RXF 393", "value": "Active"}, {"measurement": "growth inhibition (GI)", "setting": "EKVX", "value": "Active"}, {"measurement": "growth inhibition (GI)", "setting": "MDA-MB-231", "value": "Active"}, {"measurement": "growth inhibition (GI)", "setting": "NCI-H522", "value": "Active"}, {"measurement": "growth inhibition (GI)", "setting": "NCI-H23", "value": "Active"}, {"measurement": "growth inhibition (GI)", "setting": "A549", "value": "Active"}, {"measurement": "growth inhibition (GI)", "setting": "MDA-MB-468", "value": "Active"}, {"measurement": "zone of inhibition at 100 µg/mL", "setting": "Aspergillus fumigatus [4]", "value": 14, "unit": "mm"}, {"measurement": "growth inhibition (GI)", "setting": "SK-MEL-5", "value": "Active"}, {"measurement": "growth inhibition (GI)", "setting": "SNB-19", "value": "Active"}, {"measurement": "growth inhibition (GI)", "setting": "K562", "value": "Active"}, {"measurement": "growth inhibition (GI)", "setting": "MDA-MB-435", "value": "Active"}, {"measurement": "growth inhibition (GI)", "setting": "SN12C", "value": "Active"}, {"measurement": "growth inhibition (GI)", "setting": "IGROV-1", "value": "Active"}, {"measurement": "growth inhibition (GI)", "setting": "HCT-116", "value": "Active"}, {"measurement": "growth inhibition (GI)", "setting": "Malme-3M", "value": "Active"}, {"measurement": "growth inhibition (GI)", "setting": "U-251", "value": "Active"}, {"measurement": "growth inhibition (GI)", "setting": "SK-MEL-28", "value": "Active"}]}]}
